Assay results taken from patent US9309224B2 (Deciphera Pharmaceuticals, LLC, priority 2013, dated 2016).

Experiments:
[1] = target: T1, unphosphorylated c-FMS kinase (uFMS, Seq. ID no. 1) (Homo sapiens, UniProt P07333); assay: uFMS kinase assay (pyruvate kinase/lactate dehydrogenase coupled); type: biochemical; conditions: ATP 500 μM
T1 construct: purchased Millipore
T1 sequence (P07333 538-972): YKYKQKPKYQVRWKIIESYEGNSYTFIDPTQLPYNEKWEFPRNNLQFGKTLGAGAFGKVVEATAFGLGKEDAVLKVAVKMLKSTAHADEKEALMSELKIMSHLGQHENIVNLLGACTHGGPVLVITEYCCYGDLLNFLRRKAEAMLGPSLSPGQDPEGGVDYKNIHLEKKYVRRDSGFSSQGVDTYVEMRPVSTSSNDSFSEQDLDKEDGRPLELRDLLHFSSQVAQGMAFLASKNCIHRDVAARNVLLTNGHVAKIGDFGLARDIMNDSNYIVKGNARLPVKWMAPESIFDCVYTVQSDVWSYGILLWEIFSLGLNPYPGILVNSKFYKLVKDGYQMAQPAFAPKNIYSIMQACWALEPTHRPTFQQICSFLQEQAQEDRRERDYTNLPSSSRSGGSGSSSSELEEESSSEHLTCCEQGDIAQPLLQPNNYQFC
Experimental: In this assay, the oxidation of NADH (thus the decrease at A340 nm) was continuously monitored spectrophometrically. The reaction mixture (100 μL) contained FMS (purchased from Millipore) (10 nM), polyE4Y (1 mg/mL), MgCl2 (10 mM), pyruvate kinase (4 units), lactate dehydrogenase (0.7 units), phosphoenol pyruvate (1 mM), NADH (0.28 mM) and ATP (500 μM) in 90 mM Tris buffer containing 0.2% octyl-glucoside and 1% DMSO, pH 7.5. The inhibition reaction was started by mixing serial diluted test compound with the above reaction mixture. The absorption at 340 nm was monitored continuously for 4 hours at 30° C. on Synergy 2 plate reader. The reaction rate was calculated using the 3 to 4 h time frame. Percent inhibition was obtained by comparison of reaction rate with that of a control (i.e. in the absence of test compound). IC50 values were calculated from a series of percent inhibition values determined at a range of inhibitor concentrations using software routines as implemented in the GraphPad Prism software package.

[2] = target: T2, unphosphorylated c-KIT kinase (uKIT, Seq. ID no. 2) (Homo sapiens, UniProt P10721); assay: uKit kinase assay (pyruvate kinase/lactate dehydrogenase coupled); type: biochemical; conditions: ATP 2000 μM
T2 construct: uKit with N-terminal GST fusion used for
Experimental: In this assay, the oxidation of NADH (thus the decrease at A340 nm) was continuously monitored spectrophometrically. […] The inhibition reaction was started by mixing serial diluted test compound with the above reaction mixture. The absorption at 340 nm was monitored continuously for 4 hours at 30° C. on Synergy 2 plate reader (BioTech).

[3] = target: T3, unphosphorylated PDGFRβ kinase (uPDGFRβ, Seq. ID No. 3) (Homo sapiens, UniProt P09619); assay: Unphosphorylated PDGFRβ kinase assay (pyruvate kinase/lactate dehydrogenase coupled); type: biochemical; conditions: ATP 500 μM
T3 construct: purchased DeCode
Description: Unphosyhorylated PDGFRβ (uPDGFRβkinase (Seq. ID No. 3) assay

[4] = system: M-NFS-60 cells; assay: M-NFS-60 cell proliferation assay; type: cell-based; conditions: 67 h incubation, resazurin
Experimental: M-NFS-60 Cell Proliferation Assay A serial dilution of test compound was dispensed into a 384-well black clear bottom plate (Corning, Corning, N.Y.). Two thousand five hundred cells were added per well in 50 μL complete growth medium. […] IC50 values were calculated from a series of percent inhibition values determined at a range of inhibitor concentrations using software routines as implemented in the GraphPad Prism software package.

[5] = target: T4, phospho-FMS in THP-1 cells (Homo sapiens, UniProt P07333); assay: Phospho-FMS ELISA assay in THP-1 cells; type: cell-based; conditions: 4 hours compound, M-CSF stimulated; read-out: pFMS inhibition in THP-1 cells
T4 construct: endogenous in cells; host or cells: THP-1 (ATCC TIB-202)
Experimental: In a separate 96 well black clear bottom plate, one hundred and fifty thousand THP-1 cells were added per well in 100 μL in assay medium. Fifty microliters of diluted compound was then added to the cells. […] Lysates were prepared and used to perform the phospho-FMS ELISA as described by the manufacturer (catalog #DYC3268, R & D Systems, Minneapolis, Minn.). GraphPad Prism was used to calculate IC50 values obtained from data generated from the ELISA assay.

[6] = system: PC-3 M-luc cells; assay: PC-3 peritibial implant model of cancer bone metastasis; type: in vivo, mouse; conditions: oral gavage twice daily; score 0-4; vehicle-treated animals score 4
Description: PC-3 Peritibial Implant Model of Cancer Bone Metastasis To evaluate in vivo anti-cancer activity of compounds of formula I, the PC-3 M-luc peritibial injection model of bone invasiveness model was employed. Briefly, PC-3 M-luc cells were obtained from Xenogen Corporation (Caliper Life Sciences) and expanded using MEM media modified with L-Glutamine (Cell Gro® #10-045-CV) supplemented with 10% fetal bovine serum, 1% penicillin-streptomycin-glutamine, 1% non-essential amino acids, and 1% MEM vitamins in 5% CO2 atmosphere at 37° C. Six to 7 week old male nude mice (Crl:NU-Foxn1nu) were obtained from Charles River Laboratories. Test mice were implanted peritibially on Day 0 with 1×10^6 cells/mouse (0.1 mL) using an insulin syringe with a fixed 28-gauge needle. The needle was inserted at the ankle between the tibia and fibula until the bevel of the needle reaches approximately half way between the knee and ankle Treatments began on Day 0. Animals were dosed by oral gavage twice daily for the study duration. All procedures carried out in this experiment were conducted in compliance with all the laws, regulations and guidelines of the National Institutes of Health (NIH). […] Lesions in the right hind limb were scored with values of 0, 1, 2, 3, or 4 based on a qualitative assessment of lesion size as defined by: 0: Normal Bone 1: Minimal lesions. […]

[7] = system: U251-luc human glioma carcinoma; assay: U251 intra-cerebro-ventricular implant in mice with fractionated head radiation; type: in vivo, mouse; conditions: 30 mg/kg twice daily, 10 days post irradiation, compared to vehicle treated control
Experimental: U251 Intra-Cerebro-Ventricular Implant in Mice To evaluate in vivo anti-cancer activity compounds of formula I in combination with fractionated, localized head radiation, an orthotopic U251-luc (Luc) human glioma carcinoma model in female outbred nu/nu mice was employed. Briefly, U251 cells were obtained from the ATCC and altered to be luciferase expressing. They were grown in RPMI 1640 Media supplemented with 10% FBS and 1% PSG. The growth environment was maintained in an incubator with a 5% CO2 atmosphere at 37° C. Female Harlan Nude mice (Hsd:AthymicNude-Fox1nu) 8-9 weeks old were used in this study. Test animals were implanted intracranially with U251-luc (LucmCherry) cells. Briefly, animals were injected subcutaneously with 5 mg/kg carprofen and anesthetized using 2% isoflurane in air. The animals were then secured in a stereotaxic frame (ASIinstruments, Inc.) and a hole drilled 2 mm right lateral, 1 mm anterior to the coronal suture. The cell suspension (stored on wet ice) was mixed thoroughly and drawn up into a 50 μL syringe. The syringe needle was centered over the burr hole and lowered 3 mm into the brain and retracted 1 mm to form a “reservoir” for the deposition of the cell suspension. […] Images were analyzed using Living Image (Xenogen, Alameda, Calif.) software. The BLI signal in the brain was calculated with a fixed area ROI to estimate the tumor burden. […]

T2 sequence (P10721 with tags, fused parts or gaps): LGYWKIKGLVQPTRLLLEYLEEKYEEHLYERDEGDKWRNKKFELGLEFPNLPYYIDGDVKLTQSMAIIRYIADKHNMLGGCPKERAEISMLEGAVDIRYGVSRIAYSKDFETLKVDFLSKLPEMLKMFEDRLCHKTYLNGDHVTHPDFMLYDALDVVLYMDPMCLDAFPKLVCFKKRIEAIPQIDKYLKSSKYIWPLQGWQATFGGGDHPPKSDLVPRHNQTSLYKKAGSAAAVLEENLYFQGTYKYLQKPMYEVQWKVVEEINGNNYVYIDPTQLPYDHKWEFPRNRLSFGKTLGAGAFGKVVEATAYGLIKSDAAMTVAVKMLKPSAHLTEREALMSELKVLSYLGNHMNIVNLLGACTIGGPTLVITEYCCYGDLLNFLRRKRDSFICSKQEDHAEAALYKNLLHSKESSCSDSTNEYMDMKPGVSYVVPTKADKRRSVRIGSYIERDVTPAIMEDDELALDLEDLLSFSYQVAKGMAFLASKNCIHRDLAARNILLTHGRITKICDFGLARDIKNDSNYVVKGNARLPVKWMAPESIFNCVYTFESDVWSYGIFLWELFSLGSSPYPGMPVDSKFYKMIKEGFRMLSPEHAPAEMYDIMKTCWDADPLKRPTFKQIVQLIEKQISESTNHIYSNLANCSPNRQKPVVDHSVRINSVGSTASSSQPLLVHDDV
T3 sequence (P09619 557-1105): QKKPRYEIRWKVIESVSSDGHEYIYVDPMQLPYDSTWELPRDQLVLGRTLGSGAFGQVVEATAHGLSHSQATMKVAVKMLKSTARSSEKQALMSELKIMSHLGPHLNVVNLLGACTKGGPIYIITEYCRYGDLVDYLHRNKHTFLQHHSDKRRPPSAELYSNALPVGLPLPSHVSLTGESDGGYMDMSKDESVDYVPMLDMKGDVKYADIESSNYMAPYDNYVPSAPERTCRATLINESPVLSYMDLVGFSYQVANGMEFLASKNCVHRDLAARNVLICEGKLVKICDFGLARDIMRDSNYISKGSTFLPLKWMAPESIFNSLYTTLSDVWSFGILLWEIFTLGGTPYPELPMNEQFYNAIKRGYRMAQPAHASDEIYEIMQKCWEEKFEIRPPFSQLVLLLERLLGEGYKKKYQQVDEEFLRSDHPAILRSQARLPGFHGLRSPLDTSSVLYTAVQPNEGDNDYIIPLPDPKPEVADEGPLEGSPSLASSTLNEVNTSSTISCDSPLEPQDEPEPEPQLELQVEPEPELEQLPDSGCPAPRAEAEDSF
T4 sequence (P07333 20-972): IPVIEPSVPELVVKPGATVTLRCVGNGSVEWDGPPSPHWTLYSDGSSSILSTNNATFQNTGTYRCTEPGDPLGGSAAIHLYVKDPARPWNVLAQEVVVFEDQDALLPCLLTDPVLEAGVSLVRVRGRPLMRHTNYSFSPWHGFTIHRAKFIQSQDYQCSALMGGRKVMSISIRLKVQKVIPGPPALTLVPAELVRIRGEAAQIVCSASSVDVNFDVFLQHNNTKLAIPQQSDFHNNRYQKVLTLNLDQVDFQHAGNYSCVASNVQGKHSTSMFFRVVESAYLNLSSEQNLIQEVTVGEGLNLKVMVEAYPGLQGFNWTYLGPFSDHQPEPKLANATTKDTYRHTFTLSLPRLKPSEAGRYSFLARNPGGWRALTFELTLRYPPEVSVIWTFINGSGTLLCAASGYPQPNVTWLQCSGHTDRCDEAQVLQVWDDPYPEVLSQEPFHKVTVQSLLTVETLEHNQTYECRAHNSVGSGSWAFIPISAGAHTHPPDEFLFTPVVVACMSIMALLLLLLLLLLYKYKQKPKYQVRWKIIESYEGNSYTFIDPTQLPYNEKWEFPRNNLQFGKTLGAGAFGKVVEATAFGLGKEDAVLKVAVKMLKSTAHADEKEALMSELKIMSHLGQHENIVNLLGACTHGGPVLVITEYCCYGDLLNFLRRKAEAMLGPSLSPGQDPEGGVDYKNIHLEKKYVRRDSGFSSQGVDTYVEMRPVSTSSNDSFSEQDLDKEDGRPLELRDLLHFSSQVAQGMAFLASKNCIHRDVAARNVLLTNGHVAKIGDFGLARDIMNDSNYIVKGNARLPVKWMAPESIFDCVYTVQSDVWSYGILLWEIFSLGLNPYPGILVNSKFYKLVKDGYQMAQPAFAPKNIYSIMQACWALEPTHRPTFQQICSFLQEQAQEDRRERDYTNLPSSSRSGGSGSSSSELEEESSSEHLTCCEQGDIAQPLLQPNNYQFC

CN1CCN(C(=O)Nc2cc(Oc3ccc(NC(=O)NC(=O)C(C)(C)C)nc3)ccn2)CC1 [Example 45, 4-methyl-N-(4-((6-(3-pivaloylureido)pyridin-3-yl)oxy)pyridin-2-yl)piperazine-1-carboxamide]
IC50 [1]: < 10 nM
IC50 [2]: 100 to 1000 nM
IC50 [3]: 100 to 1000 nM
IC50 [4]: < 10 nM
IC50 [5]: < 10 nM
lesion score [6]: 3
reduction in tumor re-growth [7]: 80%
